Experimental data: paper PMC11219871, “Epigenetic-based differentiation therapy for Acute Myeloid Leukemia” (Nature Communications, 2024)
Where “and” joins values, the source holds several entries; their conditions need not be identical. Equal values may be shown once.

Tests used:
HDAC11 = molecular target: T1, HDAC11 (Homo sapiens, UniProt Q96DB2); test: Continuous and direct activity assay for HDAC11; type: biochemical; settings: for inhibition at 10 µM: source data of Fig. 1B; for IC50: Continuous Activity Assay for HDAC11
T1 sequence (Q96DB2 1-347): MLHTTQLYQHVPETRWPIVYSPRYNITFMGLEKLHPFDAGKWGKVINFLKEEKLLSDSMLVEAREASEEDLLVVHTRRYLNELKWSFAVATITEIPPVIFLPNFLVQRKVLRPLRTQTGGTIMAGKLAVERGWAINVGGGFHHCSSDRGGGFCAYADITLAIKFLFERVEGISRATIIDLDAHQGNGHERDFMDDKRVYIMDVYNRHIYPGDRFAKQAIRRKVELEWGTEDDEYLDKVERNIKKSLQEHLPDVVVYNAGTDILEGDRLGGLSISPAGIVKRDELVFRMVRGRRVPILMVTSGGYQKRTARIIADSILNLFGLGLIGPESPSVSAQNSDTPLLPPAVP

[1] = test system: H3Ac and H3K27me3 levels in HL-60, ML-2, MV4-11 and MOLM-13 cell lines; test: Western blot of histone marks; type: cell-based, human; settings: HL-60, 270 nM CM-444 or 300 nM CM-1758, 48 h
Protocol: Histone extraction was performed with a Histone extraction Kit (Abcam, Cambridge, UK) following the manufacturer’s instructions. The histone concentration in the extract was measured using the dye-binding assay of Bradford. A 10 µg amount of histone was separated on 15% sodium dodecyl sulfate-polyacrylamide gel electrophoresis and transferred to a nitrocellulose membrane. The membrane, after being blocked with Tropix I-block blocking reagent (Cat No AI300, Tropix) in PBS with 0.1% Tween 20 and 0.02 NaN3 was incubated with the primary antibody against Acetyl H3 (rabbit polyclonal antibody, Cat No 06-599, Millipore) diluted 1:50,000 o/n at 4 °C or against H3K27 me3 (mouse monoclonal antibody to histone H3 trimethyl K27, Cat No ab6002, Abcam) diluted 1:2000 in bovine serum albumin o/n at 4 °C and then with alkaline phosphatase-conjugated secondary antibodies. […] Total H3 was used as a loading control (diluted 1:50,000 o/n at 4 °C or for 1 h at room temperature) (Anti-Histone H3, CT, pan, rabbit polyclonal, Cat No 07-690, Millipore). Images have been cropped for presentation.

HL-60 = test: Cell-cycle analysis; type: cell-based, human; settings: HL-60, treatment for 48 hours; replicates 1-3 (Figure 2F)
Protocol: (§1) […] Next, the cells were washed twice with PBS and resuspended in 0.2% Tween 20 in PBS and 0.5 mg/mL Rnase A (Ribonuclease A Type III-A from bovine pancreas, Cat No. R5125, Sigma), and then incubated for 30 min at 37 °C. Subsequently, the cells were stained with 25 μg/mL of propidium iodide (Cat No P4170, Sigma) and analyzed using a BD FACSCanto flow cytometer (Becton Dickinson, San Jose, CA, USA).

ML-2 = test: Cell-cycle analysis; type: cell-based, human; settings: ML-2, treatment for 48 hours; replicates 1-3 (Figure 2F)
Protocol: as §1

MOLM-13 = test: Cell-cycle analysis; type: cell-based, human; settings: MOLM-13, 48 hours
Protocol: as §1

MV4-11 = test: Cell-cycle analysis; type: cell-based, human; settings: MV4-11, 48 hours
Protocol: as §1

hERG potassium channels = molecular target: T2, hERG potassium channels (Homo sapiens, UniProt Q12809); test: hERG blockade assay (whole-cell patch clamp, CHO cells); type: cell-based; settings: for IC50: read-out: hERG binding: IC50
T2 construct: host or cells: CHO cells
T2 sequence (Q12809 whole entry): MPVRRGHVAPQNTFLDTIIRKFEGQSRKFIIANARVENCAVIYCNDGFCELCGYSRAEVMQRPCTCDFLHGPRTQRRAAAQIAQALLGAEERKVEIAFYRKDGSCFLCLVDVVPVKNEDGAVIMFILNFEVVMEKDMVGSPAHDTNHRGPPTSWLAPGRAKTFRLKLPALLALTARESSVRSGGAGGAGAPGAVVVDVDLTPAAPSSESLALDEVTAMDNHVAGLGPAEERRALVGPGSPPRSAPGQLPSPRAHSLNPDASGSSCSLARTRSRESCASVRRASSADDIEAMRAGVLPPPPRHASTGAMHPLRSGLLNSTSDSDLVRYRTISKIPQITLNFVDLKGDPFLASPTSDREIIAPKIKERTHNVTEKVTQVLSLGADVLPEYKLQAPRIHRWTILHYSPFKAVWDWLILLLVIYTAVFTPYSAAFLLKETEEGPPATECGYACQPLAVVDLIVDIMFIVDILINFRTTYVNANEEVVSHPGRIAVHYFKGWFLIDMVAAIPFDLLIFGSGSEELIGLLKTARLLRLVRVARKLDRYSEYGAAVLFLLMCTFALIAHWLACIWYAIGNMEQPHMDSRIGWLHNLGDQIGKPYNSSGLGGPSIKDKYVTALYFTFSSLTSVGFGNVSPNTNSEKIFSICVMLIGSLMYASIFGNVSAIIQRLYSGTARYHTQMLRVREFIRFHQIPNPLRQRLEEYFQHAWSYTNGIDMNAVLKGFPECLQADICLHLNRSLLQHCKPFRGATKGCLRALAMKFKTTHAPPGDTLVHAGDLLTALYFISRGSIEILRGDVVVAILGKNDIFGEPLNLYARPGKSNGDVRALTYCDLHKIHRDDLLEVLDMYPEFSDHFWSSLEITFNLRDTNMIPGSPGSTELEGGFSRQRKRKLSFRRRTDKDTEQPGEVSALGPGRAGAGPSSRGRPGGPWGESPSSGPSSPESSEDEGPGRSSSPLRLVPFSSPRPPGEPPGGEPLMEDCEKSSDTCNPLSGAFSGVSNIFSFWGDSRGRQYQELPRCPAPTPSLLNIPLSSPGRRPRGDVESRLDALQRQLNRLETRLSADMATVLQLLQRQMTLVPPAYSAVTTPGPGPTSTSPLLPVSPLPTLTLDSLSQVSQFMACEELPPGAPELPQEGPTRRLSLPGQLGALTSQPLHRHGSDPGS
Protocol: This study was conducted at Wuxi (http://www.wuxi.com/), using CHO cells with stable expression of hERG potassium channels (Sophion Biosciences, Ballerup, Denmark). Cells were cultured (F12 medium, supplemented with 10% FBS, 1% Geneticin® selective antibiotic, 89 μg/mL hygromycin B) in a humidified and air-controlled (5% CO2) incubator at 37 °C ± 2 °C. Test compounds were diluted at different concentrations (0.3 μM–30μM), with a final DMSO concentration in an extracellular solution of <0.3%. The external solution consisted of 2 mM CaCl2, 1 mM MgCl2, 4 mM KCl, 145 mM NaCl, 10 mM glucose and 10 mM HEPES at pH 7.3–7.4. The internal solution consisted of 5.37 mM CaCl2, 1.75 mM MgCl2, 120 mM KCl, 10 mM HEPES, 5 mM EGTA and 4 mM Na2ATP at pH 7.2–7.3. The assay was performed at room temperature using the whole-cell patch clamp techniques controlled with Patchmaster Pro software. For quality control, minimum seal membrane resistance was set at 500 MOhms and the minimum/maximum specific hERG current (pre-compound) was 400 pA/3000 pA. A 100-nM amount of cisapride was used as the positive control to evaluate the reliability of the test system. Results are the average of two biological replicates.

[2] = test system: MOLM-13 i.v. in BALB/cA Rag2-/-γc-/- mice; test: Intravenous xenograft model (survival, CD11b in blood, body weight); type: in vivo, mouse; settings: for CD11b in blood samples: MOLM-13 i.v., 10 mg/kg i.p.; for CD11b (%): blood samples of mice engrafted intravenously with MOLM-13 cells, individual mice

Compound | inhibition at 10 µM (HDAC11) | IC50 (HDAC11) | H3Ac level (western blot) [1] | H3K27me3 level (western blot) [1] | Cell number (%) G1 (HL-60) | Cell number (%) G2/M (HL-60) | Cell number (%) S (HL-60) | Cell number (%) G1 (ML-2) | Cell number (%) G2/M (ML-2) | Cell number (%) S (ML-2) | Cell number (%) G1 (MOLM-13) | Cell number (%) G2/M (MOLM-13) | Cell number (%) S (MOLM-13) | Cell number (%) G1 (MV4-11) | Cell number (%) G2/M (MV4-11) | Cell number (%) S (MV4-11) | hERG hill slope (hERG potassium channels) | IC50 (hERG potassium channels) | CD11b in blood samples [2] | CD11b (%) [2]
COc1cc2nc(-c3ccc(C)o3)cc(NCC3CCN(c4ncc(C(=O)NO)cn4)CC3)c2cc1OC [CM-444, 2-[4-[[[6,7-dimethoxy-2-(5-methyl-2-furyl)-4-quinolyl]amino]methyl]-1-piperidyl]pyrimidine-5-carbohydroxamic acid] | 90% | 0.568 µM | significant increase in H3Ac | no changes in H3K27me3 | 96.96% and 93.22% and 91.97% | 4.36% and 1.34% and 3.53% | 1.70% and 3.26% and 3.67% | 96.26% and 93.16% and 96.12% | 0.0429% and 0.75% and 2.61% | 2.99% and 4.24% and 3.84% | 98.91% and 98.32% and 98.59% | 0.29% and 0.03% and 0.73% | 1.06% and 0.95% and 1.11% | 92.37% and 89.49% and 89.94% | 2.21% and 0.68% and 3.29% | 6.95% and 7.22% and 7.84% | 1.33 | 16.8 µM | significant induction of CD11b | 49.5% and 13.9% and 12.3% and 14% and 28.6% and 15.1% and 19.3% and 15% and 42.6% and 31.9% and 18% and 12.6%
COc1cc2nc(-c3cc(C)oc3C)cc(NCC3CCN(c4ncc(C(=O)NO)cn4)CC3)c2cc1OC [CM-1758, 2-[4-[[[2-(2,5-dimethyl-3-furyl)-6,7-dimethoxy-4-quinolyl]amino]methyl] -1-piperidyl]pyrimidine-5-carbohydroxamic acid] | 90% | 0.6 µM | significant increase in H3Ac | no changes in H3K27me3 | 79.37% and 83.97% and 81.85% | 6.97% and 12.93% and 5.78% | 7.70% and 10.26% and 11.19% | 90.78% and 86.19% and 89.03% | 6.71% and 3.95% and 9.23% | 5.26% and 4.58% and 4.26% | 94.79% and 97.36% and 97.43% | 0.72% and 2.84% and 0.69% | 2.37% and 1.95% and 1.85% | 84.98% and 89.31% and 85.09% | 8.40% and 10.00% and 4.67% | 5.02% and 6.02% and 6.51% | 0.99 | 4.89 µM | significant induction of CD11b | 43.5% and 62.1% and 13.7% and 9.45% and 29.6% and 36.3% and 8.98% and 17.9% and 35.4% and 52.9% and 49.9%
